Test results as given in patent US20170348306A1, “METHODS OF TREATING CANCER” (GLAXOSMITHKLINE LLC, priority 2011, published 2017).
Like-named read-outs stand apart in the source and are kept apart here.

Tests used:
Test in all cases: Cell proliferation assay (6 days, CellTiter-Glo)
Format in all cases: cell-based
BC-2 = conditions: Homo sapiens, 144 h, AIDS-BCBL, EZH2 WT, read-out: AVERAGE GROWTH IC50
Source text: (§1) Thus, Example 22 and Table 6 better reflect the inhibition of HZH2 inhibitors on cell lines, e.g. the lymphoma cell lines. DLBCL cell lines were the most sensitive to EZH2 inhibition (FIG. 11a). […] Evaluation of GSK126 in additional lymphoma cell lines and extensive genomic and epigenomic characterization will be required to fully elucidate the determinants of sensitivity among lymphoma subtypes.
(§2) Biochemical assays utilized the 5-member PRC2 complex (human Flag-EZH2, EED, SUZ12, AEBP2, RbAp48) containing either WT or mutant EZH2, [^3H-]SAM and the indicated peptide substrate; reactions were incubated for 30 minutes. Global histone modification levels were determined by ELISA or western blot methods using antibodies specific for total histone H3, H3K27me1, H3K27me2, or H3K27me3. Cell proliferation and Caspase-3/7 activity were assessed using CellTiter-Glo and Caspase-Glo 3/7 (Promega), respectively. Gene expression profiling was conducted using Affymetrix Human Genome U133 Plus 2.0 microarrays. Differentially-expressed probe sets were determined by fitting the data to a linear model using the limma statistical package (http://www.bioconductor.org) and carrying out pair-wise contrasts of treated versus control. Significant probe sets were filtered for detection (log2 signal threshold of 8), an average fold-change >2 or <−2, or >1.5 or <−1.5, where indicated, with p-values adjusted for multiple testing correction by FDR (Benjamini Hochberg)<0.1. H3K27me3 ChIP reads were aligned using Bowtie (56). H3K27me3 enrichment peaks were identified using SICER (57) with optimized parameters. A custom PERL script was utilized to quantify the average basal H3K27me3 ChIP-seq tag density across gene sets. All in vivo studies were conducted after review by the Institutional Animal Care and Use Committee at GSK and in accordance with the GSK Policy on the Care, Welfare and Treatment of Laboratory Animals. GSK126 and vehicle were administered to mice intraperitoneally. Two-tailed t-tests were conducted assuming two samples of equal variance.
(§3) The optimal cell seeding was determined empirically for all cell lines by examining the growth of a wide range of seeding densities in a 384-well format to identify conditions that permitted proliferation for 6 days. […] Plates were incubated for 6 days at 37° C. in 5% CO2. Cells were then lysed with CellTiter-Glo (Promega) and chemiluminescent signal was detected with a TECAN Safire2 microplate reader. In addition, an untreated plate of cells was harvested at the time of compound addition (T0) to quantify the starting number of cells. CTG values obtained after the 6 day treatment were expressed as a percent of the T0 value and plotted against compound concentration.

BC-3 = conditions: Homo sapiens, 144 h, PEL, AIDS-BCBL, EZH2 D185H (HET), read-out: AVERAGE GROWTH IC50
Source text: as §1, §2, §3

CRO-AP2 = conditions: Homo sapiens, 144 h, PEL, AIDS-BCBL, EZH2 WT, read-out: AVERAGE GROWTH IC50
Source text: as §1, §2, §3

DB = conditions: Homo sapiens, 144 h, DLBCL, EZH2 Y641N (HET), read-out: AVERAGE GROWTH IC50
Source text: as §1, §2, §3

Daudi = conditions: Homo sapiens, 144 h, BURKITT, EZH2 WT, read-out: AVERAGE GROWTH IC50
Source text: as §1, §2, §3

Farage = conditions: Homo sapiens, 144 h, DLBCL, EZH2 D185H (HET), read-out: AVERAGE GROWTH IC50
Source text: as §1, §2, §3

HS-SULTAN = conditions: Homo sapiens, 144 h, BURKITT, EZH2 WT, read-out: AVERAGE GROWTH IC50
Source text: as §1, §2, §3

HT = conditions: Homo sapiens, 144 h, DLBCL, EZH2 WT, read-out: AVERAGE GROWTH IC50
Source text: as §1, §2, §3

Hs 445 = conditions: Homo sapiens, 144 h, HODGKIN'S, EZH2 WT, read-out: AVERAGE GROWTH IC50
Source text: as §1, §2, §3

Jiyoye = conditions: Homo sapiens, 144 h
Source text: as §1, §2, §3

KARPAS-1106P = conditions: Homo sapiens, 144 h, MLBCL, EZH2 E744A (HET), read-out: AVERAGE GROWTH IC50
Source text: as §1, §2, §3

MHH-PREB-1 = conditions: Homo sapiens, 144 h, B-NHL, EZH2 WT, read-out: AVERAGE GROWTH IC50
Source text: as §1, §2, §3

MINO = conditions: Homo sapiens, 144 h, B-NHL, EZH2 D185H (HET), read-out: AVERAGE GROWTH IC50
Source text: as §1, §2, §3

RPMI-6666 = conditions: Homo sapiens, 144 h, HODGKIN'S, EZH2 WT, read-out: AVERAGE GROWTH IC50
Source text: as §1, §2, §3

Raji = conditions: Homo sapiens, 144 h, BURKITT, EZH2 WT, read-out: AVERAGE GROWTH IC50
Source text: as §1, §2, §3

SC-1 = conditions: Homo sapiens, 144 h, FL, EZH2 D185H (HET), read-out: AVERAGE GROWTH IC50
Source text: as §1, §2, §3

SU-DHL-10 = conditions: Homo sapiens, SU-DHL10, 144 h, DLBCL, EZH2 Y641F (HET), read-out: AVERAGE GROWTH IC50
Source text: as §1, §2, §3

SU-DHL-16 = conditions: Homo sapiens, 144 h, B-NHL, EZH2 D185H (HET), read-out: AVERAGE GROWTH IC50
Source text: as §1, §2, §3

SU-DHL-5 = conditions: Homo sapiens, 144 h, DLBCL, EZH2 WT, read-out: AVERAGE GROWTH IC50
Source text: as §1, §2, §3

SU-DHL-6 = conditions: Homo sapiens, 144 h, DLBCL, EZH2 Y641N (HET), read-out: AVERAGE GROWTH IC50
Source text: as §1, §2, §3

WILL-1 = conditions: Homo sapiens, 144 h, DLBCL, EZH2 D185H (HET), read-out: AVERAGE GROWTH IC50
Source text: as §1, §2, §3

WSU-NHL = conditions: Homo sapiens, 144 h, FL, EZH2 D185H (HET), read-out: AVERAGE GROWTH IC50
Source text: as §1, §2, §3

CC[C@H](C)n1cc(C)c2c(C(=O)NCc3c(C)cc(C)[nH]c3=O)cc(-c3ccc(N4CCNCC4)nc3)cc21 [GSK126] was tested, and the IC50 (BC-2) was 4760 nM, the IC50 (BC-3) was 2220 nM and the IC50 (CRO-AP2) was 1640 nM. The IC50 (DB) was 861 nM, the IC50 (Daudi) was 1260 nM and the IC50 (Farage) was 1720 nM. For the same compound, the IC50 (HS-SULTAN) was 2280 nM, the IC50 (HT) was 516 nM and the IC50 (Hs 445) was 3530 nM. The IC50 (Jiyoye; JIYOYE, BURKITT, EZH2 WT, read-out: AVERAGE GROWTH IC50) was 232 nM, the IC50 (Jiyoye; Jiyoye, BL cell line with WT EZH2, read-out: growth IC50) was 230 nM and the IC50 (KARPAS-1106P) was 4540 nM. For the same compound, the IC50 (MHH-PREB-1) was 5300 nM, the IC50 (MINO) was 7340 nM and the IC50 (RPMI-6666) was 1430 nM. It also gave an IC50 (Raji) of 7860 nM, an IC50 (SC-1) of 3730 nM and an IC50 (SU-DHL-10) of 448 nM. The IC50 (SU-DHL-16) was 3280 nM, the IC50 (SU-DHL-5) was 2300 nM and the IC50 (SU-DHL-6) was 582 nM. For the same compound, the IC50 (WILL-1) was 5530 nM and the IC50 (WSU-NHL) was 3540 nM.
